Read-outs that look alike come from different tables or passages of the source.

The test system of data set [1] is Passive cutaneous anaphylaxis (P.C.A.). The data set is described as follows: Inhibition of passive cutaneous anaphylaxis (P.C.A.). The format is in vivo, rat (Sprague-Dawley). As to conditions: Rattus norvegicus, 1 h; rats, 2 × 10^-5 mol/kg p.o., one hour before ovalbumin challenge. An outline of the steps:
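Sprague-Dawley rats (150-180 g) were sensitized intradermally with rat IgE-rich anti-ovalbumin serum and challenged 24 h later with i.v. ovalbumin 8.25 mg/kg plus Evans blue. Compound was given orally at 2×10^-5 mol/kg 1 h before challenge. Dye exudation was scored visually at 30 min as % inhibition versus vehicle controls.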

Data set [2] deals with Histamine-induced anaphylactoid reactions. The experiment in a line: Inhibition of anaphylactoid cutaneous reaction induced by histamine. The data set is classed as in vivo, rat (Sprague-Dawley). Particulars: Rattus norvegicus, 1 h; rats, 2 × 10^-5 mol/kg p.o., one hour before challenge; histamine intradermal. An outline of the steps:
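Animals received 50 μl intradermal histamine (0.8 mg/ml in saline) in the flank opposite the antiserum site, just before i.v. ovalbumin plus blue dye. Test substance at 2×10^-5 mol/kg was given orally 1 h before challenge in water with 1% DMF and 1% Tween 20. Blue-dye exudation was scored visually at 30 min, giving % inhibition versus solvent controls.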

A further data set has as its target T1, histamine (H1) receptor (Cavia porcellus, UniProt P31389).
T1 construct: isolated smooth muscle of the guinea-pig ileum; from tissue; host or cells: isolated ileum segments of Dunkin Hartley guinea-pigs
The data set is described as follows: Antihistamine (H1) effect: inhibition of histamine-induced contractions of isolated guinea-pig ileum in vitro. The format is cell-based, guinea-pig (Dunkin Hartley). As to conditions: histamine 5 × 10^-6 mol/l, test substance 10^-6 mol/l. An outline of the steps:
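Dunkin Hartley guinea-pig ileum segments (300-500 g animals) in Krebs-Henseleit, pH 7.4, 5% CO2/95% O2, 1 g tension, isotonic recording. Compound at 10^-6 mol/l for 30 s before histamine 5×10^-6 mol/l; contraction measured over 30 s, repeated 10 min after washout, expressed as % inhibition.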

Data set [3] can be described thus: Determination of the minimum toxic dose. Details: species or system male mice. As to conditions: mouse, in vivo, po, 300 mg/kg, 1440 min. The procedure: 2. Determination of the minimum toxic dose.
Maximum doses of 300 mg/kg of the test substance were administered orally to male mice weighing 20-25 g. The animals were observed carefully for 3 hours for toxicity symptoms. In addition, all symptoms and deaths over a period of 24 hours after administration were recorded. Associated symptoms were also observed and recorded. If death or severe toxic symptoms were observed, further mice were administered increasingly lower doses. The lowest dose which caused death or severe toxic symptoms is given as the minimum toxic dose in the following Table B.

[4] abbreviates: after 30 sec., read-out: in vitro (H1) receptor antagonism % inhibitory effect on histamine-induced contractions of the Ileum, after 30 sec.
The mark [5] stands for this setting: after 10 min. (after washing), read-out: in vitro (H1) receptor antagonism % inhibitory effect on histamine-induced contractions of the Ileum, after 10 min.

T1 sequence (P31389 whole entry): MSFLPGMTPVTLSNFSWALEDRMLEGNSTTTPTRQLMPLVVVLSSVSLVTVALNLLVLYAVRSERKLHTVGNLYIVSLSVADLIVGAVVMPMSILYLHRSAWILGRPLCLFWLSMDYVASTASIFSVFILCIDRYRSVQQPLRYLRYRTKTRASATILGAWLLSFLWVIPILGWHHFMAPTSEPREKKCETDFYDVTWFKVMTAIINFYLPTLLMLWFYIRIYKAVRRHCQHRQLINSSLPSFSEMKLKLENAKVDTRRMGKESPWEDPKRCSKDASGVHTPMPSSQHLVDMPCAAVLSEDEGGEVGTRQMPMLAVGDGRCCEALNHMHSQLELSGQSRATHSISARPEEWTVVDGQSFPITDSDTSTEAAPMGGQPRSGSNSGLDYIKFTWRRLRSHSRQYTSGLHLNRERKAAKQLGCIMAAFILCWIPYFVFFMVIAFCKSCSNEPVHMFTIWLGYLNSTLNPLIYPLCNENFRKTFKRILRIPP

A word on the inhibition in vivo: it is the share of the control response that was lost under treatment. Lower therefore signals a response near the control. As to `CC(=O)Oc1cc2c3c(c1)c(CCN1CCN(c4cc(C)ccn4)CC1)c(C)n3CCC2` [Example 24, 8-Acetoxy-5,6-dihydro-2-methyl-1-{2-[4-(4-methyl-pyridin-2-yl)piperazin-1-yl]ethyl}-4H-pyrrolo[3,2,1-ij]quinoline], the inhibition in vivo at 20 µmol/kg turned out to be 55% in data set [1] and 60% in data set [2]. For the same molecule, the inhibition at 1 µM on histamine (H1) receptor (setting [4]) came out at 81%; at histamine (H1) receptor (setting [5]) it was 94%.
On the same counts, the results for `Cc1ccnc(N2CCN(CCc3c(C)n4c5c(cc(C(O)C(C)C)cc35)CCC4)CC2)c1` (stereo not drawn) [Example 19, 5,6-Dihydro-8-(1-hydroxy-2-methylpropyl)-2-methyl-1-{2-[4-(4-methylpyridin-2-yl)piperazin-1-yl]ethyl}-4H-pyrrolo-[3,2,1-ij]quinoline] are 95%, 95%, 26% and 83%.
On the same counts, the results for `Cc1ccnc(N2CCN(CCc3c(C)n4c5c(ccc(C(=O)C(C)C)c35)SCC4)CC2)c1` [Example 91] are 86%, 87%, 16% and 83%.
For `CCCCC1CCc2cc(OC)cc3c(CCN4CCN(c5cc(C)ccn5)CC4)c(C)n1c23` (stereo not drawn) [Example 63], the inhibition in vivo at 20 µmol/kg in data set [1] was found to be 100%; in data set [2] it was 95%. Moreover, the inhibition at 1 µM on histamine (H1) receptor (setting [4]) was determined as 17%; at histamine (H1) receptor (setting [5]) it was 67%.
On the same counts, the results for `Cc1ccnc(N2CCN(CCc3c(C)n4c5c(cc(Br)cc35)CCC4)CC2)c1` [Example 9, 8-Bromo-2-methyl-1-{2-[4-(4-methylpyridin-2-yl)piperazin-1-yl]ethyl}-5,6-dihydro-4H-pyrrolo[3,2,1-ij]quinoline] are 90%, 80%, 10% and 78%.
Take `Cc1c(CCN2CCN(c3ccccn3)CC2)c2cccc3c2n1CCC3` [Example 37]: the results for the inhibition in vivo at 20 µmol/kg in data set [1] and in data set [2] were 60% and 58%, respectively. Besides, the values for the inhibition at 1 µM on histamine (H1) receptor (setting [4]) and on histamine (H1) receptor (setting [5]) were 24% and 61%, respectively.
Regarding `CCCCC1CCc2cc(C(=O)C(C)C)cc3c(CCN4CCN(c5cc(C)ccn5)CC4)c(C)n1c23` (stereo not drawn) [Example 23, 4-n-Butyl-5,6-dihydro-8-(2-methyl-1-oxopropyl)-2-methyl-1-{2-[4-(4-methylpyridin-2-yl)piperazin-1-yl]ethyl}-4H-pyrrolo[3,2,1-ij]quinoline], the inhibition in vivo at 20 µmol/kg came to 100% in data set [1] and 95% in data set [2]. The inhibition at 1 µM is 7% on histamine (H1) receptor (setting [4]) and 38% at histamine (H1) receptor (setting [5]).
On the same counts, the results for `CCc1c(CCN2CCN(c3cc(C)ccn3)CC2)c2cccc3c2n1CCC3` [Example 15, 2-Ethyl-5,6-dihydro-1-{2-[4-(4-methylpyridin-2-yl)piperazin-1-yl]ethyl}-4H-pyrrolo[3,2,1-ij]quinoline] are 85%, 65%, 29% and 78%.
On the same counts, the results for `Cc1ccnc(N2CCN(CCc3c(C)n4c5c(cc(NC(=O)c6ccccc6)cc35)CCC4)CC2)c1` [Example 25, 8-Benzoylamino-5,6-dihydro-2-methyl-1-{2-[4-(4-methylpyridin-2-yl)piperazin-1-yl]-ethyl}-4H-pyrrolo[3,2,1-ij]quinoline] are 100%, 100%, 10% and 77%.
On the same counts, the results for `CCCCC1CCc2cc(O)cc3c(CCN4CCN(c5cc(C)ccn5)CC4)c(C)n1c23` (stereo not drawn) [Example 76] are 100%, 100%, 3% and 67%.
As for `CC(C)=Cc1cc2c3c(c1)c(CCN1CCN(c4cc(C)ccn4)CC1)c(C)n3CCC2` [Example 26, 5,6-Dihydro-2-methyl-8-(2-methylprop-1-enyl)-1-{2-[4-(4-methylpyridin-2-yl)piperazin-1-yl]ethyl}-4H-pyrrolo[3,2,1-ij]quinoline], the inhibition in vivo at 20 µmol/kg in data set [1] came to 95%; in data set [2], 90%. In addition, the inhibition at 1 µM was 15% at histamine (H1) receptor (setting [4]) and 42% at histamine (H1) receptor (setting [5]).
For the molecule `Cc1cc2c3c(c1)c(CCN1CCC(C(=O)c4ccc(F)cc4)CC1)c(C)n3CCC2` [Example 55], the inhibition in vivo at 20 µmol/kg turned out to be 80% in data set [1] and 50% in data set [2]. Also, the “Minimum toxic dose (lowest dose which caused death or severe toxic symptoms)” value in data set [3] amounted to 300 mg/kg.
In the case of `COc1ccc(C2CCc3cc(OC)cc4c(CCN5CCN(c6cc(C)ccn6)CC5)c(C)n2c34)cc1` (stereo not drawn) [Example 65], the inhibition in vivo at 20 µmol/kg in data set [1] is 100%; in data set [2], 95%. Also, the inhibition at 1 µM on histamine (H1) receptor (setting [4]) amounted to 21%; at histamine (H1) receptor (setting [5]), 48%.
On the same counts, the results for `Cc1ccnc(N2CCN(CCc3c(C)n4c5c(cc(CC(C)C)cc35)CCC4)CC2)c1` [Example 21, 5,6-Dihydro-2-methyl-8-(2-methylpropyl)-1-{2-[4-(4-methylpyridin-2-yl)piperazin-1-yl]ethyl}-4H-pyrrolo[3,2,1-ij]quinoline] are 95%, 90%, 9% and 56%.
On the same counts, the results for `CC(=O)c1cc2c3c(c1)c(CCN1CCN(c4cc(C)ccn4)CC1)c(C)n3CCC2` [Example 67] are 100%, 95%, 59% and 93%.
`Cc1ccnc(N2CCN(CCc3c(C)n4c5c(cc([N+](=O)[O-])cc35)CCC4)CC2)c1` [Example 10, 2-Methyl-8-nitro-1-{2-[4-(4-methylpyridin-2-yl)-piperazin-1-yl]ethyl}-5,6-dihydro-4H-pyrrolo[3,2,1-ij]quinoline]: the inhibition in vivo at 20 µmol/kg in data set [1] worked out at 83%; in data set [2], 75%. For the same molecule, the inhibition at 1 µM on histamine (H1) receptor (setting [4]) was determined as 47%; on histamine (H1) receptor (setting [5]) it was 92%.
On to `Cc1ccnc(N2CCN(CCc3c(C)n4c5c(cccc35)CC4C)CC2)c1` (stereo not drawn) [Example 33], for which the inhibition in vivo at 20 µmol/kg in data set [1] is 100%; in data set [2], 93%. Besides, the inhibition at 1 µM was 45% at histamine (H1) receptor (setting [4]) and 96% at histamine (H1) receptor (setting [5]).
Turning to `Cc1ccnc(N2CCN(CCc3c(C)n4c5c(cc(N)cc35)CCC4)CC2)c1` [Example 20, 8-Amino-5,6-dihydro-2-methyl-1-{2-[4-(4-methylpyridin-2-yl)piperazin-1-yl]ethyl}-4H-pyrrolo[3,2,1-ij]quinoline], the inhibition in vivo at 20 µmol/kg turned out to be 100% in data set [1] and 95% in data set [2]. In addition, the inhibition at 1 µM worked out at 27% at histamine (H1) receptor (setting [4]) and 77% on histamine (H1) receptor (setting [5]).
Turning to `Cc1ccnc(N2CCN(CCc3c(C)n4c5c(cc(NC(=O)C(C)C)cc35)CCC4)CC2)c1` [Example 60], the results for the inhibition in vivo at 20 µmol/kg in data set [1] and in data set [2] were 100% and 95%, respectively. Moreover, the inhibition at 1 µM is 9% on histamine (H1) receptor (setting [4]) and 37% on histamine (H1) receptor (setting [5]).
On the same counts, the results for `C=CCCC1CCc2cccc3c(CCN4CCN(c5cc(C)ccn5)CC4)c(C)n1c23` (stereo not drawn) [Example 62] are 100%, 95%, 13% and 72%.
On the same counts, the results for `Cc1ccnc(N2CCN(CCc3c(CO)n4c5c(cccc35)CCC4)CC2)c1` [Example 16, 5,6-dihydro-2-hydroxymethyl-1-{2-[4-(4-methylpyridin-2-yl)piperazin-1-yl]ethyl}-4H-pyrrolo[3,2,1-ij]quinoline] are 85%, 73%, 42% and 55%.
For `Cc1ccnc(N2CCN(CCc3c(C)n4c5c(cc(C(=O)C(C)C)cc35)CCC4)CC2)c1` [Example 27, 5,6-dihydro-2-methyl-8-(2-methyl-1-oxopropyl)-1-{2-[4-(4-methylpyridin-2-yl)piperazin-1-yl]ethyl}-4H-pyrrolo-[3,2,1-ij]quinoline], the inhibition in vivo at 20 µmol/kg in data set [1] is 100%; in data set [2] it was 95%. Also, the results for the inhibition at 1 µM at histamine (H1) receptor (setting [4]) and at histamine (H1) receptor (setting [5]) were 33% and 92%, respectively.

Values taken from patent publication US5324725A, “7-fused 2-(piperazinoalkyl) indole derivatives, intermediates and compositions thereof” (Kali-Chemie Pharma GmbH, priority 1991, dated 1994).
